The record followed here is patent US10906897B2, “Microbiocidal heterobicyclic derivatives” (priority 2015, dated 2021).

Series [1] deals with Botryotinia fuckeliana (Botrytis cinerea). The series can be described thus: Botryotinia fuckeliana (Botrytis cinerea) / liquid culture (Gray mould). To be noted: growth inhibition photometrically 3-4 days after application, compared to untreated control. In kind it is cell-based.
In the next series the test system is Fusarium culmorum. Kind of series: microbe, parasite or virus in culture. Format: cell-based. To be noted: read-out: control of Fusarium culmorum.
A further series relates to Gaeumannomyces graminis. Kind of series: Gaeumannomyces graminis / liquid culture (Take-all of cereals). To be noted: growth inhibition photometrically 4-5 days after application, compared to untreated control. Format: cell-based.
Series [2] concerns Glomerella lagenarium (Colletotrichum lagenarium). The series can be described thus: Glomerella lagenarium (Colletotrichum lagenarium) / liquid culture (Anthracnose). Particulars: Colletotrichum orbiculare, growth inhibition photometrically 3-4 days after application, compared to untreated control. In kind it is cell-based.
The test system of series [3] is Magnaporthe grisea (Pyricularia oryzae). Kind of series: whole plant or invertebrate. Format: in vivo. Particulars: foliar, read-out: control of Magnaporthe grisea.
In series [4] the test system is Monographella nivalis (Microdochium nivale). Kind of series: Monographella nivalis (Microdochium nivale) / liquid culture (foot rot cereals). Format: cell-based. To be noted: 96 h, growth inhibition photometrically 4-5 days after application, compared to untreated control.
Series [5] concerns Magnaporthe grisea (Pyricularia oryzae). The series can be described thus: microbe, parasite or virus in culture. Format: cell-based. To be noted: read-out: control of Magnaporthe grisea.

What is called melting point is the temperature of the solid-liquid transition. In the case of `CC1(C)N=C(c2cnc3ccccn23)c2cccc(F)c2C1(C)C` [Compound E-1, 5-fluoro-1-imidazo[1,2-a]pyridin-3-yl-3,3,4,4-tetramethyl-isoquinoline], the melting point lay in the range of 129 to 130 °C. In series [1], this compound had an inhibition of growth at 20 ppm of at least 80%. Further, the inhibition of growth at 20 ppm in the series on Fusarium culmorum was at least 80%. Besides, the inhibition of growth at 20 ppm with Gaeumannomyces graminis was at least 80%. Moreover, the inhibition of growth at 20 ppm in series [2] is at least 80%.
In the case of `CC1(C)N=C(c2cnc3c(Br)cccn23)c2cccc(F)c2C1(C)C` [Compound E-8, 1-(8-bromoimidazo[1,2-a]pyridin-3-yl)-5-fluoro-3,3,4,4-tetramethyl-isoquinoline], the inhibition of growth at 20 ppm (in series [1]; in the series with Fusarium culmorum; in series [2]) was at least 80% throughout. Besides, the pest or weed control at 200 ppm in series [3] was at least 50%.
With `CCc1cccn2c(C3=NC(C)(C)C(C)(C)c4c(F)cccc43)cnc12` [Compound E-21, 1-(8-ethylimidazo[1,2-a]pyridin-3-yl)-5-fluoro-3,3,4,4-tetramethyl-isoquinoline], the inhibition of growth at 20 ppm (in series [1]; with Fusarium culmorum; in series [4]; in series [2]) was at least 80% each time.
As for `COc1ccc2ncc(C3=NC(C)(C)C(C)(C)c4c(F)cccc43)n2c1` [Compound E-25, 5-fluoro-1-(6-methoxyimidazo[1,2-a]pyridin-3-yl)-3,3,4,4-tetramethyl-isoquinoline], the melting point is 214 to 215 °C. Further, the inhibition of growth at 20 ppm in the series on Gaeumannomyces graminis is at least 80%.
Regarding `CC1(C)N=C(c2cnc3c(C(F)(F)F)cccn23)c2cccc(F)c2C1(C)C` [Compound E-29, 5-fluoro-3,3,4,4-tetramethyl-1-[8-(trifluoromethyl)imidazo [1,2-a]pyridin-3-yl]isoquinoline], the melting point is 141 to 142 °C. The inhibition of growth at 20 ppm in series [1] was at least 80%. In addition, the inhibition of growth at 20 ppm in series [4] was at least 80%. In series [2], this compound had an inhibition of growth at 20 ppm of at least 80%.
`Cc1ccn2c(C3=NC(C)(C)C(C)(C)c4c(F)cccc43)cnc2c1` [Compound E-31, 5-fluoro-3,3,4,4-tetramethyl-1-(7-methylimidazo[1,2-a]pyridin-3-yl)isoquinoline]: the inhibition of growth at 20 ppm (in series [1]; with Fusarium culmorum; in series [2]) was at least 80% throughout. Also, the pest or weed control at 200 ppm in series [3] is at least 50%.
Consider `Cc1cccn2c(C3=NC(C)(C)C(C)(C)c4ccccc43)cnc12` [Compound E-33, 3,3,4,4-tetramethyl-1-(8-methylimidazo[1,2-a]pyridin-3-yl)isoquinoline], for which the inhibition of growth at 20 ppm (in series [1]; in the series with Fusarium culmorum; in series [4]; in series [2]) was at least 80% each time. The pest or weed control at 200 ppm in series [3] was at least 50%.
For the compound `CC1(C)N=C(c2cnc3c(Br)cccn23)c2cccc(F)c2C1(F)F` [Compound E-37, 1-(8-bromoimidazo[1,2-a]pyridin-3-yl)-4,4,5-trifluoro-3,3-dimethyl-isoquinoline], the inhibition of growth at 20 ppm (in the series on Gaeumannomyces graminis; in series [2]) was at least 80% throughout.
With `CC1(C)N=C(c2cnc3c(C#N)cccn23)c2cccc(F)c2C1(C)C` [Compound E-38, 3-(5-fluoro-3,3,4,4-tetramethyl-1-isoquinolyl)imidazo[1,2-a]pyridine-8-carbonitrile], the inhibition of growth at 20 ppm (in series [1]; in series [4]; in the series with Gaeumannomyces graminis; in series [2]) was at least 80% in each case.
With `CC1(C)Cc2ccccc2C(c2cnc3c(Br)cccn23)=N1` [Compound E-41, 1-(8-bromoimidazo[1,2-a]pyridin-3-yl)-3,3-dimethyl-4H-isoquinoline], the melting point lay in the range of 132 to 133 °C. Moreover, in the series with Gaeumannomyces graminis, the inhibition of growth at 20 ppm was at least 80%.
Turning to `Cc1cccn2c(C3=NC(C)(C)C(F)(F)c4ccccc43)cnc12` [Compound E-45, 4,4-difluoro-3,3-dimethyl-1-(8-methylimidazo[1,2-a]pyridin-3-yl)isoquinoline], the inhibition of growth at 20 ppm (in series [1]; in the series on Fusarium culmorum; in series [4]; in series [2]) was at least 80% throughout. In addition, the pest or weed control at 200 ppm in series [3] is at least 50%.
`Cc1cccn2c(C3=NCC4(CCC4)c4ccccc43)cnc12` [Compound E-53, 1-(8-methylimidazo[1,2-a]pyridin-3-yl)spiro[3H-isoquinoline-4,1′-cyclobutane]] registered a melting point of 127 to 129 °C. In series [5], the inhibition of growth at 60 ppm was at least 80%. This compound registered an inhibition of growth at 20 ppm in series [1] of at least 80%. This compound also yielded an inhibition of growth at 20 ppm in series [4] of at least 80%.
`CC1(C)N=C(c2cnc3c(Cl)c(Cl)ccn23)c2ccccc2C1(F)F` [Compound E-56, 1-(7,8-dichloroimidazo[1,2-a]pyridin-3-yl)-4,4-difluoro-3,3-dimethyl-isoquinoline] had a melting point of over 210 °C. Besides, in series [5], the inhibition of growth at 60 ppm is at least 80%. Also, the inhibition of growth at 20 ppm in series [1] was at least 80%.
Consider `CC1(C)N=C(c2cnn3ccccc23)c2cccc(F)c2C1(C)C` [Compound E-58, 5-fluoro-3,3,4,4-tetramethyl-1-pyrazolo[1,5-a]pyridin-3-yl-isoquinoline], for which the melting point fell in the range of 124 to 126 °C. This compound returned an inhibition of growth at 20 ppm in series [1] of at least 80%. Also, in the series on Gaeumannomyces graminis, the inhibition of growth at 20 ppm was at least 80%. The compound further yielded an inhibition of growth at 20 ppm in series [2] of at least 80%.
As to `Cc1ccc2c(C3=NC(C)(C)C(=O)c4cc(F)ccc43)cnn2c1C` [Compound E-74, 1-(6,7-dimethylpyrazolo[1,5-a]pyridin-3-yl)-6-fluoro-3,3-dimethyl-isoquinolin-4-one], the melting point lay in the range of 168 to 170 °C. For the same compound, in series [5], the inhibition of growth at 60 ppm is at least 80%. In series [1], this compound gave an inhibition of growth at 20 ppm of at least 80%. For the same compound, in the series with Fusarium culmorum, the inhibition of growth at 20 ppm was at least 80%. In series [2], the inhibition of growth at 20 ppm was at least 80%.
The compound `Cc1c(Br)ccc2c(C3=NC(C)(C)C(=O)c4ccccc43)cnn12` [Compound E-78, 1-(6-bromo-7-methyl-pyrazolo[1,5-a]pyridin-3-yl)-3,3-dimethyl-isoquinolin-4-one] came in with a melting point of 166 to 168 °C. Besides, the inhibition of growth at 60 ppm in series [5] was at least 80%. The compound also came in with an inhibition of growth at 20 ppm in series [1] of at least 80%. In addition, the inhibition of growth at 20 ppm with Fusarium culmorum was at least 80%. The inhibition of growth at 20 ppm in series [4] was at least 80%. For the same compound, the inhibition of growth at 20 ppm in series [2] is at least 80%.
On to `CC1(C)N=C(c2cnn3cc(C#N)ccc23)c2ccccc2C1(F)F` [Compound E-85, 3-(4,4-difluoro-3,3-dimethyl-1-isoquinolyl)pyrazolo[1,5-a]pyridine-6-carbonitrile], for which the melting point fell in the range of 191 to 194 °C. Also, in series [5], the inhibition of growth at 60 ppm is at least 80%. For the same compound, the inhibition of growth at 20 ppm in series [1] is at least 80%.
Compound `C#Cc1ccc2c(C3=NC(C)(C)C(F)(F)c4ccccc43)cnn2c1` [Compound E-90, 1-(6-ethynylpyrazolo[1,5-a]pyridin-3-yl)-4,4-difluoro-3,3-dimethyl-isoquinoline] displayed a melting point of 145 to 147 °C. Further, in series [5], the inhibition of growth at 60 ppm was at least 80%. The compound also returned an inhibition of growth at 20 ppm in series [4] of at least 80%. The compound further showed an inhibition of growth at 20 ppm in the series with Gaeumannomyces graminis of at least 80%. For the same compound, in series [2], the inhibition of growth at 20 ppm was at least 80%.
